Test results reported in US6630583B1, “Antibiotics and methods of using the same” (priority 1998, dated 2003).
Entries after “also recorded” stand apart in the source; their conditions may differ.

Tests used:
pneumococcal strain R6 = test: Cell growth curves (OD 620 nm) and viability of R6 with peptide; format: cell-based, Streptococcus pneumoniae; settings: for ability to inhibit R6 growth: peptides at 100 μM added to growing R6 at OD 620 nm of 0.1
Description: (§1) Cell growth curves were performed in the presence or absence of the test reagents as specified. In short, samples were prepared as follows: 1 ml of a pneumococcus culture was placed into 10 ml of prewarmed Semisynthetic (C+Y) medium. The optical density (OD) of the bacteria was monitored at 620 nm until an OD of approximately 0.1 was reached. At this point the test reagents were administered to the samples. The cells were cultured for up to 11 hours at 37° Celsius, and the OD at 620 nm was monitored every hour. A decrease in OD 620 is indicative of cell lysis, an increase is indicative of bacterial growth. No change in optical density indicates growth inhibition.
To characterize the antibacterial activity of the peptide, pneumococcal strain R6 which is sensitive to penicillin was exposed to 0.1 mM of the peptide having the amino acid sequence of SEQ ID NO:2 at an optical density of 0.01 (bacterial density of 3×10^6 cfu/ml). Bacterial growth as measured by optical density was followed for 11 hours and viability was assessed by plating on blood agar. […] Four hours after the start of the experiment, the control strain grew from 3×10^6 to 1.2×10^7 cfu/ml. In contrast, four hours after addition of the peptide, the viable bacterial number decreased from 3×10^6 to 3×10^4 CFU/ml (10^3-fold lower than the control).
The fact that the peptide is active in the range below 1 μg/ml places the potency of its antibacterial effect in the same range as conventional antibiotics.
R6 with no peptide was the control and underwent exponential growth. […] This enhanced activity may result from an improvement in folding of the peptide or greater access to the bacterial target.

clinical isolate A144 [1] = test: Cell viability (CFU/ml) one hour after addition; format: cell-based, pneumococcus; settings: 10×MIC of penicillin, 1×MIC of vancomycin or 0.4 mM peptide
Description: (§2) Tolerance to penicillin occurs in bacteria that fail to trigger autolysins in response to the drug. […] This is a mechanism of resistance to these drugs and is a serious emerging medical problem. […] However, one pneumococcal strain that fails to lyse and dies slowly in response to both penicillin and vancomycin is the clinical isolate A144. This combination of traits makes A144 recalcitrant to therapy. FIG. 8 compares the activity of penicillin, vancomycin, and the peptide having the amino acid sequence of SEQ ID NO:2 against a classical sensitive strain, R6, and the tolerant strain A144. […] In contrast, strain A144 loses only 0.5 logs of viability in the same time period for all three therapies. […] Thereafter the bacteria grew more slowly than untreated controls.

[2] = tested on: loss of function mutants of the ABC transporter and RR/HK; test: Tolerance of loss of function mutants; format: cell-based, S. pneumoniae; settings: growth inhibitory concentrations
Description: As described in Example 6, using insertion duplication mutagenesis, loss of function mutations were obtained in each of the 3 open reading frames of the ABC transporter and each of the two parts of the RR/HK. […] These parallel phenotypes further implicate these topographically close genes in a common pathway.
Vancomycin is the only antibiotic that maintains efficacy against many strains of highly antibiotic resistant bacteria, such as staphylococci, enterococci and pneumococci. Escape from antibiotic activity of vancomycin has been detected in rare staphylococci and enterococci but not in pneumococci as yet. […] Infect. Dis. J., 12:196-200 (1993); Marton et al., J. Infect. Dis., 163:542-8 (1991); and Bradley et al., Pediatr. Infect. Dis., 14:1037-1041 (1995)]. […] If they created a phenotype which was corrected by exogenous peptide, they may participate in the biological activity of the peptide. For instance, the ABC transporter may transport the peptide and the HK may serve as an extracellular receptor for the peptide which then changes the behavior of the bacteria (i.e., killing) via a RR signal.

[3] = tested on: leucine deprived R6 cells; test: Stringent response: lysis after leucine deprivation; format: cell-based, S. pneumoniae
Description: P27 and the stringent response mechanism: The stringent response is believed to prevent the death pathway. To clarify the relationship of the stringent response to P27 activity, protein synthesis of R6 was inhibited by leucine deprivation and the effect of P27 was monitored (FIG. 19). […] The minimum concentration of penicillin required to cause penicillin dependent autolysis was equal to its MIC ([…]).

[4] = tested on: pneumococcus R6 in medium lacking lysine; test: Phenotypic tolerance: lysis under starvation conditions; format: cell-based; settings: for lysis response of non-growing bacteria: 10×MIC of penicillin and/or 0.5 mM peptide
Description: When bacteria grow slowly or stop growing due to nutrient deprivation, they become tolerant to antibiotics of all classes. […] This prolongs the course of antibiotics needed to treat these infections. For instance, many weeks of therapy are required to treat endocarditis and osteomyelitis secondary to slowly growing bacteria. An in vitro example of phenotypic tolerance is shown in FIG. 10 where pneumococcus R6 has been transferred at time 0 to a medium lacking the essential amino acid lysine. Penicillin was added 5 min after the transfer. […] This same response is seen with the peptide having the amino acid sequence of SEQ ID NO:2.

mutant SPSJ01 = test: Screen of library of loss of function mutants for antibiotic tolerance; format: cell-based, pneumococcus
Description: To detect genes that are part of the trigger pathway of the pneumococcal autolysin a library of loss of function mutants has been created, which was screened for antibiotic tolerance [Pearce et al., Mol. Microbiol., 9:1037-1050 (1993)]. […] It is reasonable to assume that this two component system represents the start of the pneumococcal autolytic trigger pathway, functioning as a relay station reacting to cell density signals or the binding of antibiotics to penicillin binding proteins. Similar to the enterococcal histidine kinase VanSB, the pneumococcal VncS works most likely as a kinase/phosphatase (see Example 1, above).

HK mutant Van S = test: Lysis of HK mutant; format: cell-based, pneumococcus; settings: 10×MIC of penicillin and/or 0.5 mM peptide
Description: (§3) FIGS. 11A-11B show the effects of 10×MIC of penicillin and/or 0.5 mM of the peptide having the amino acid sequence of SEQ ID NO:2 on the lysis of clinical isolate F79 cells (FIG. 11A) and HK mutant VanS cells (FIG. 11B).
(§4) F79 is a natural isolate of pneumococcus with mutations in the HK and the ABC transporter genes as determined by SSCP (see Example 11).

clinical isolate F79 = test: Lysis of tolerant clinical isolate; format: cell-based, pneumococcus; settings: 10×MIC of penicillin and/or 0.5 mM peptide
Description: as §3, §4

Orf W1 mutant = test: Phenotypes of the mutants: lysis by penicillin, vancomycin, DOC; format: cell-based, S. pneumoniae
Description: (§5) Construction of mutations: Insertion duplication mutagenesis was carried out using PCR to generate gene fragments for homologous recombination proximal to the amino terminus of OrfW1, HK or RR as follows:
(§6) Phenotypes of the mutants: The mutants were assessed for various physiological functions characteristic of pneumococci. This included lysis by penicillin, vancomycin, and the detergent deoxycholate (DOC). Other capabilities tested included ability to undergo natural DNA transformation (Transform) and expression of the LytA protein as assessed by Western blot.

HK mutant = test: as above; format: cell-based, S. pneumoniae
Description: as §5, §6

RR mutant = test: as above; format: cell-based, S. pneumoniae
Description: as §5, §6

clinical isolate A144 [5] = test: Growth of the clinical isolate; format: cell-based, pneumococcus; settings: 0.1 mM peptide added early in the growth cycle
Description: as §2

mutant in ORF W1 = test: Antibacterial activity of the peptide in the mutants; format: cell-based, S. pneumoniae; settings: mutant in ORF W1, peptide added from the outside
Description: (§7) To test this hypothesis the ability of the peptide having the amino acid sequence of SEQ ID NO:2 to maintain antibacterial activity in the mutants was examined. […] Furthermore, bacteria which are tolerant by virtue of phenotypic tolerance due to slow growth rate or mutations in genes other than the RR/HK will be susceptible to the antibacterial effect of the peptide having the amino acid sequence of SEQ ID NO:2.

RR/HK mutants = test: as above; format: cell-based, S. pneumoniae; settings: peptide added exogenously
Description: as §7

Lyt 4-4 = test: Loss of chain formation (morphology); format: cell-based, Streptococcus pneumoniae; settings: Lyt 4-4, 0.5 mM peptide in the medium
Description: Loss of chain formation is a measure of antibacterial activity independent of autolysin.
Strains of pneumococcus that are tolerant to penicillin, such as Lyt 4-4, grow in long chains as compared to the diplococcal morphology of wild type pneumococci. FIG. 6A illustrates these chains, which extend to 30-50 bacteria in length.
P27 is capable of triggering different autolytic pathways: To identify the relationship between P27 and the activation of the autolysin LytA, the bactericidal effect of the peptide on the pneumococcal mutant Lyt-4-4 (which is deficient in the major autolysin), was investigated. […] Compared to the diplococcal morphology of wild type pneumococci, pneumococci lacking an active autolysin grow in long chains.

[6] = tested on: autolysin deficient strain Lyt 4-4; test: Growth and killing of autolysin deficient strain; format: cell-based, Streptococcus pneumoniae; settings: Lyt 4-4, 0.1 mM peptide
Description: The addition of the additives were made at time “0” hours. The strain of bacteria cultured was the Lyt-4-4 strain of Streptococcus pneumoniae which harbors a mutation leading to the loss of LytA activity. The peptide having the amino acid sequence of SEQ ID NO:2 was added as indicated at a concentration of 0.1 mM. Lyt-4-4 lacks active autolysin LytA and is therefore tolerant to penicillin treatment.
as §1
This antibacterial effect was also demonstrable in bacteria mutated so as to prevent autolysis by point mutation in the autolysin, as in the autolysin deficient strain Lyt 4-4. […]

CC1(C)S[C@@H]2[C@H](NC(=O)Cc3ccccc3)C(=O)N2[C@H]1C(=O)O [penicillin, benzylpenicillin]
time to lysis of R6 (pneumococcal strain R6; growing R6, penicillin at 10×MIC): within one hour
loss of viability (clinical isolate A144 [1]): 0.5 logs
tolerance (lysis and death) [2]: failed to lyse and die
lysis of R6 under leucine deprivation ([3]; 10×MIC of penicillin or vancomycin, 0.2 mM P27, or combination): neither the addition of 10×the MIC of penicillin or vancomycin nor the addition of 0.2 mM P27 resulted in lysis
minimum concentration of penicillin required to cause penicillin dependent autolysis ([3]; leucine deprived R6, in combination with P27): 0.1 mg/mL
viability of non-growing bacteria ([4]; 10×MIC of penicillin): unaffected
lysis response of non-growing bacteria [4]: only a minimal response
death in the presence of antibiotic (mutant SPSJ01): failed to die
lysis of Van S (HK mutant Van S): tolerance
lysis of F79 (clinical isolate F79): tolerant
Lysis by (Orf W1 mutant): tolerant
Lysis by (HK mutant): tolerant
Lysis by (RR mutant): sensitive

LADKRPARDYN (listed as Streptococcus pneumoniae) [Peptide 5]
ability to inhibit R6 growth (pneumococcal strain R6): Exponential growth equal to untreated bacteria

MEFMRKEFHNVLSSGQLLADKRPARDYN (listed as Streptococcus pneumoniae) [SEQ ID NO:12]
antibacterial activity against R6 (pneumococcal strain R6): no antibacterial activity

MRKEFHNVLSAGQLLADKRPARDYN [Peptide 3]
ability to inhibit R6 growth (pneumococcal strain R6): greatly enhanced antibacterial effect

MRKEFHNVLSSGQL (listed as Streptococcus pneumoniae) [Peptide 4]
ability to inhibit R6 growth (pneumococcal strain R6): Exponential growth equal to untreated bacteria

MRKEFHNVLSSGQLLADKRPARDAN [Peptide 2]
ability to inhibit R6 growth (pneumococcal strain R6): greatly decreased anti-bacterial activity

MRKEFHNVLSSGQLLADKRPARDYN (listed as Streptococcus pneumoniae) [Peptide 1]
growth of strain A144 (clinical isolate A144 [5]): significantly inhibits the growth of strain A144 for 4 hours
Bacterial growth as measured by optical density (pneumococcal strain R6; R6, 0.1 mM peptide, followed for 11 hours): completely inhibited growth
viable number, fold lower than the control (pneumococcal strain R6; R6, 0.1 mM peptide, four hours): 10^3 fold
viable bacterial number (pneumococcal strain R6; R6, 0.1 mM peptide, four hours after addition, start 3×10^6): 3×10^4 CFU/ml
lysis (pneumococcal strain R6; R6, 0.1 mM peptide, listed as SEQ ID NO:2): without substantial cell lysis; also recorded: No lysis was detected
minimum effective concentration (MEC) (pneumococcal strain R6; R6, converted with molecular weight 2940): 0.15 to 0.3 µg/mL
minimum effective concentration (pneumococcal strain R6; R6, optical density over 4 hours): 50 to 100 nM
dose dependence of antibacterial activity (pneumococcal strain R6; R6, various amounts of peptide, 4 hours): dose dependent antibacterial activity
ability to inhibit R6 growth (pneumococcal strain R6): significant delay in the onset of bacterial growth
growth inhibition (mutant in ORF W1): not able to inhibit growth
growth inhibition (RR/HK mutants): did not function to inhibit the growth
loss of viability (clinical isolate A144 [1]): 0.5 logs
lysis response of non-growing bacteria [4]: same response
lysis of Van S (HK mutant Van S): not responsive
chain formation (Lyt 4-4; listed as SEQ ID NO.2): dissolution of the chains
chain formation (Lyt 4-4; listed as SEQ ID NO:2): reversion of the chains to diplococci
bactericidal activity [6]: demonstrable

deoxycholate [DOC]
Lysis by (Orf W1 mutant): no
Lysis by (HK mutant): yes
Lysis by (RR mutant): yes
